Paper PMC6677171, “Subunit interactions and arrangements in the fission yeast Mis16–Mis18–Mis19 complex” (Life Science Alliance, 2019)
Entries after “also recorded” stand apart in the source; their conditions may differ. Values belong to the substance of their own block, whether it stands above or below them. Where no end group is shown, it is not given here.

What was measured:
[1] = molecular target: T1, Mis16 (Schizosaccharomyces pombe, UniProt O94244); assay: ITC binding of peptides to Mis16; parameters: species or system S. pombe; settings: for binding to Mis16 (in words): 30°C, mutants of the Mis19 C-terminal peptide (residues 97–112)
T1 construct: double-Strep-Tactin tag (TEV protease-cleavable) (N, cleaved yes); made in house; host or cells: insect cells (baculovirus made in Sf21, expression in Hi5)
Procedure: (§1) ITC experiments were performed at 30°C using an iTC200 (MicroCal). Samples were concentrated in a 50 mM Tris, pH 7.5, 100 mM NaCl, 4% glycerol, and […] buffer. Protein concentrations were determined using a spectrophotometer. The concentration of protein complex in the ITC cell was 26 μM. The lyophilised peptides of histone H4^27–50 or Mis19^97–112 were dissolved in the ITC buffer to a concentration of 260 μM. 3-μl injections were performed at 1,000 rpm stirring speed with an injection spacing of 3 min. The thermodynamic data were processed with the ORIGIN program (MicroCal).

[2] = molecular target: T1, Mis16; assay: ITC competition between H4α1 and Mis19 site C peptides for Mis16; format: binding, S. pombe; settings: Mis16 preincubated with one peptide before titration of the second, 30°C, pH 7.5
Procedure: Figure 3.
as §1

[3] = tested on: Mis16–Mis18–Mis19 complex; assay: Competition assay by pull-down: disruption of Mis16–Mis18–Mis19 complex; format: binding, S. pombe; settings: preformed Mis16–Mis19–Strep–Mis18 complex challenged with peptide, SDS–PAGE
Text: It has previously been reported that the interaction between Mis18 and Mis 19 occurs via the N-terminal region of Mis19 binding to the C terminus (coiled-coil) of Mis18 ([Hayashi et al, 2014]). We tried to analyse this interaction in more detail. Given that residues 56–112 of Mis19 are involved interactions with Mis16, we constructed two truncations of Mis19 with half of the remaining N-terminal residues deleted in each case (Mis19^27-C and Mis19^44-C). We first asked if these Mis16–Mis19 constructs could still interact with Mis18 in an affinity pull-down experiment (Figs 6A and S6A). […] We then add Mis18 to the Mis16–Mis19 constructs. […] To further analyse these interactions, we carried out competition assays, challenging preformed Mis16–Mis18–Mis19 complex with peptides from the N terminus of Mis19, analysing the results both by size-exclusion chromatography and affinity pull-down assays. […]
Figure 6. […] (A) Mis16–Mis18–Mis19 interactions assessed by pull-down. […] Binding of Mis16–Mis19 and Mis19 truncations to Mis18 are assessed by pull-down of Mis19 (right). (B) Mis16–19–18 binding assessed by size-exclusion and competition assays. […]
All in vitro pull-down assays were performed using purified proteins or protein complexes. […] Input and pull-down elution samples were analysed by SDS–PAGE.

[4] = tested on: Mis16–Mis18–Mis19 complex; assay: Competition assay by size-exclusion chromatography: disruption of Mis16–Mis18–Mis19 complex; format: binding, S. pombe; settings: preformed complex challenged with peptides from Mis19 N terminus
Text: It has previously been reported that the interaction between Mis18 and Mis 19 occurs via the N-terminal region of Mis19 binding to the C terminus (coiled-coil) of Mis18 ([Hayashi et al, 2014]). We tried to analyse this interaction in more detail. Given that residues 56–112 of Mis19 are involved interactions with Mis16, we constructed two truncations of Mis19 with half of the remaining N-terminal residues deleted in each case (Mis19^27-C and Mis19^44-C). We first asked if these Mis16–Mis19 constructs could still interact with Mis18 in an affinity pull-down experiment (Figs 6A and S6A). […] We then add Mis18 to the Mis16–Mis19 constructs. […] To further analyse these interactions, we carried out competition assays, challenging preformed Mis16–Mis18–Mis19 complex with peptides from the N terminus of Mis19, analysing the results both by size-exclusion chromatography and affinity pull-down assays. […] To try and pinpoint the residues that might be responsible for the interaction with Mis18, we carried out a sequence alignment of the Mis19 N terminus and noticed two conserved stretches of residues characterised by an IxxxF pattern (motif 1) and LxxF (motif 2) (Fig 7A). The two motifs are coincident with the two truncations we identified: between residues 1–27 and 28–44, respectively. As the N terminus of Mis19 is likely to be solvent-exposed (from our crystal structure), we reasoned that the conserved hydrophobic residues probably participate in protein–protein interactions. To test this, we carried out another set of competition experiments using the intact Mis16–18–19 complex and peptides carrying mutations in motifs 1 and 2, separately or combined (Fig 7B).
Figure 6. The Mis19 N terminus binds Mis18. (A) Mis16–Mis18–Mis19 interactions assessed by pull-down. Input proteins are shown on the left. Binding of Mis16–Mis19 and Mis19 truncations to Mis18 are assessed by pull-down of Mis19 (right). (B) Mis16–19–18 binding assessed by size-exclusion and competition assays. Preformed Mis16–18–19 complex was challenged with peptides derived from the N terminus of Mis19 (indicated). […]

[5] = molecular target: T1, Mis16; assay: Co-expression and affinity pull-down/size-exclusion co-purification of Mis19 deletions with Mis16; format: binding, S. pombe; settings: co-expressed in insect cells, Strep-Tactin tag on Mis16, gel filtration, SDS–PAGE band
Text: Figure 2. Mis16–Mis19 contact regions. (A) Crystal structure of Mis16–Mis19 highlighting the Mis19-binding sites. Three putative binding sites A, B, and C (lighter to darker orange from N terminus to C terminus) are indicated. (B) Schematic of the various deletion constructs of Mis19 are used for binding studies showing the positions of sites A, B, and C. (C) Constructs containing affinity-tagged Mis16 and the Mis19 deletions shown above were co-expressed and purified by affinity pull-down and size-exclusion chromatography. SDS–PAGE gel of peak fractions is shown. Asterisks indicate impurities. (D) Close-up of the A- and C-binding sites. The locations of the kis1-1 (R65) and eic1-1 (F102) t.s. mutant residues are shown.
The C-terminal interaction of Mis19 with Mis16 (site C in our nomenclature) has been previously described ([An et al, 2018]). […] To test the contribution of the individual sites to the Mis16–Mis19 interaction, various truncated Mis19 constructs were designed, for which site A, […], or both A and C are missing (Fig 2B). Full-length Mis16 and Mis19C (includes sites A, B, and C, residues 52–112), construct 1 (includes site B and C, residues 66–112), construct 2 (includes binding site B, residues 66–99), and construct 3 (includes site A and B, residues 52–99) were co-expressed in insect cells, as the isolated Mis19 truncations cannot be expressed and purified. The complexes were purified using a Strep-Tactin affinity tag on Mis16 and subsequent gel filtration step. All complexes elute from gel filtration as a single species. […] This site is formed by part of the unstructured region of Mis19 running across the top edge of Mis16.
All proteins were expressed in insect cells using standard procedures. Genes were codon-optimised in all cases (GeneArt). Single protein constructs were cloned in pFastBac vectors (Invitrogen), whereas multi-protein complexes were cloned using the MultiBac system ([Fitzgerald et al, 2006]). The Mis16 protein carried a TEV protease-cleavable double-Strep-Tactin tag at the N terminus for purification purposes. All clones were sequence verified. […]

[6] = ITC, 50 mM Tris, pH 7.5, 100 mM NaCl, 4% glycerol

T1 sequence (O94244 whole entry, the tested form may be a part): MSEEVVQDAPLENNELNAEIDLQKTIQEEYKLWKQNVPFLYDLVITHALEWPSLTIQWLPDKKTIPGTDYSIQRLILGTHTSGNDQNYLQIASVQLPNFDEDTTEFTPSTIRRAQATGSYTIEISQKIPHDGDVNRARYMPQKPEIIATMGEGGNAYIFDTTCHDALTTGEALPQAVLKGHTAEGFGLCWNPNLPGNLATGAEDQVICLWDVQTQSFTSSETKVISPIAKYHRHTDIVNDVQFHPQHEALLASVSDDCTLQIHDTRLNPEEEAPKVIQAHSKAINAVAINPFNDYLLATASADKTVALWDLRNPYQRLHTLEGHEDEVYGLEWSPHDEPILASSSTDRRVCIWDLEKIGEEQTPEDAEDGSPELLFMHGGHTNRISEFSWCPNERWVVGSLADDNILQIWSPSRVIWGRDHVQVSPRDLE

binding to Mis16 (in words) [1, 6]: reduced but did not abolish binding
Substance: LHNRSFLRRNVRAVKM [Mis19 V101S]

competition / displacement of the other peptide from Mis16 (in words) [2]: capable of competing out histone H4α1
increase in affinity over H4α1 ([1]; ratio of KD values, Mis16, ITC): 3.6 fold
Substance: LHNRVFLRRNVRAVKM [Mis19α2]

binding to Mis16 (in words) [1, 6]: reduced but did not abolish binding
Substance: LHNRVSLRRNVRAVKM [Mis19 F102S]

binding to Mis16 (in words) [1, 6]: substantially reduced binding
Substance: Mis19 R105A: point mutant of the Mis19 C-terminal peptide (residues 97–112) (LHNRVFLRANVRAVKM)

binding to Mis16 (in words) [1, 6]: completely abolished the interaction
KD ([1]; ITC, iTC200, 30°C, 50 mM Tris, pH 7.5, 100 mM NaCl, 4% glycerol, 0.5 TCEP, 26 μM in cell, peptide 260 μM, 3-μl injections, 1,000 rpm, spacing 3 min): no binding
Substance: Mis19 V101S F102S R105A: triple mutant of the Mis19 C-terminal peptide (residues 97–112) (LHNRSSLRANVRAVKM; UniProt O42995 97-112, looked up, variant V101S F102S R105A)

Substance: Mis19^1–27: peptide from the N terminus of Mis19 (MDLMPLEKARAIEIAFDNVFHNTKIPD)
disruption of preformed Mis16–Mis18–Mis19 complex (pull-down) [3]: no effect on complex formation
disruption of preformed Mis16–Mis18–Mis19 complex (size-exclusion) [4]: no effect on complex formation

Substance: Mis19^1–44: peptide from the N terminus of Mis19 (MDLMPLEKARAIEIAFDNVFHNTKIPDNLQQFDAILKRLERRRF)
disruption of preformed Mis16–Mis18–Mis19 complex (size-exclusion) [4]: effectively disrupts the complex, splitting it into a Mis18-containing and Mis16–Mis19–containing fractions

Substance: Mis19^28–44: peptide from the N terminus of Mis19 (NLQQFDAILKRLERRRF)
disruption of preformed Mis16–Mis18–Mis19 complex (pull-down) [3]: no effect on complex formation
disruption of preformed Mis16–Mis18–Mis19 complex (size-exclusion) [4]: no effect on complex formation

association with Mis16 [5]: Mis19 is associated with Mis16
Substance: construct 1: Mis19 deletion, includes site B and C, residues 66–112 (EFGVKDNHNHPINLHSLRSKSLIRAQGKKLDLHNRVFLRRNVRAVKM; UniProt O42995 66-112, looked up, fragment)

association with Mis16 [5]: only Mis16 could be detected
Substance: construct 2: Mis19 deletion, includes binding site B, residues 66–99 (EFGVKDNHNHPINLHSLRSKSLIRAQGKKLDLHN; UniProt O42995 66-99, looked up, fragment)

Substance: construct 3: Mis19 deletion, includes site A and B, residues 52–99 (PRVYETELLVLRFREFGVKDNHNHPINLHSLRSKSLIRAQGKKLDLHN; UniProt O42995 52-99, looked up, fragment)
association with Mis16 [5]: Mis19 is associated with Mis16; also recorded: still able to interact with Mis16, although rather more weakly than the full-length protein
